In US7166612B2, “Methods for reducing platelet activation platelet aggregaton or thrombosis” (Beth Israel Deaconess Medical Center, priority 2001, dated 2007):

Experiments:
[1] = system: thromboemboli from laser-induced thrombi; assay: thromboembolization from laser-induced thrombi (intravital videomicroscopy); type: in vivo, mouse
Procedure: (A) Thromboembolic events distal from the thrombus were captured using quantitative intravital fluorescence videomicroscopy with high temporal resolution( (111 frames/second) and the total amount of thromboembolization was calculated by determining the total fluorescence intensity of the fluorescently labeled platelets in thromboemboli. (B) Thromboembolization was recorded before infusion of pyridazinone compound. Platelet accumulation into thrombus is indicated by the gray line. Thromboembolism from the same thrombus is measured over time and is indicated by black bars. Each black bar represents a single thromboembolic event of the indicated fluorescent intensity.
Under these conditions, a dynamic thrombus that undergoes continuous cyclic embolization and re-accumulation is observed. The degree of embolization in an untreated mouse can be quantified using software for image analysis, e.g., BioQuant True Color Windows (Biometrics, Nashville, Tenn.), as described in Rosen et al., 2001, supra. […]
Using quantitative intravital fluorescence videomicroscopy with high temporal resolution, thromboemboli were detected and the total amount of fluorescence of the thromboemboli was measured (FIG. 11A). For this analysis, thromboembolus was defined as a platelet aggregate with a fluorescent intensity two standard deviations above the maximum background fluorescence of the arteriole before injury. […]

platelet GPIIbIIIa = assay: SFLLR-induced GPIIbIIIa activation (PAC-1 antibody, flow cytometry); type: cell-based, human; details: in words
Procedure: In order to assay platelet activation by cell surface marker expression, fresh PRP is isolated from donors who have not ingested aspirin for two weeks prior to donation. PRP (40 μl) is incubated with known or suspected inhibitor in DMSO or DMSO alone for 15 min. The sample is then incubated with the indicated agonist (e.g., SFLLR) for 10 min. Following incubation of the sample with the indicated agonist, 10 μl of reaction mixture is transferred to 5 μl of phycoerythrin (PE)-conjugated AC 1.2 anti-P-selectin antibody (for assessment of P-selectin surface expression) or fluorescein isothiocyanate (FITC)-conjugated PAC-1 antibody (for assessment of GPIIbIIIa activation). PBS (500 μl) is added to the sample after a 20 min incubation and the platelets are analyzed immediately by flow cytometry. […] A 530/30 band pass filter is used for FL-1 fluorescence. A 585/42 band pass filter is used for FL-2 fluorescence. FITC is measured in the FL-1 channel and PE is measured in the FL-2 channel. Data are analyzed using, for example, CellQuest software on a Macintosh PowerPC, or their equivalents.
Compounds were also tested by flow cytometry for the inhibition of SFLLR-induced GPIIbIIIa activation and P-selectin expression. […] PBS (500 μl) was added to the sample after a 20 min incubation and the platelets were analyzed immediately by flow cytometry. […] A 530/30 band pass filter was used for FL-1 fluorescence. […]

In the case of `CC1CC(=O)NN=C1c1ccc(N)c([N+](=O)[O-])c1` (stereo not drawn) [6-(4-Amino-3-nitro-phenyl)-5-methyl-4,5-dihydro-2H-pyridazin-3-one], the thromboembolization after infusion ([1]; 1.2 mg/kg, in words) is reported as “significantly reduced”, the reduction of embolization ([1]; after injection of compound) is reported as “greater than 80%” and the “SFLLR-induced αIIbβ3 activation measured using PAC-1 antibodies” value (platelet GPIIbIIIa) is reported as “inhibited”.
